Here are results for two molecules from ChEMBL document CHEMBL5050847, “Targeting pleckstrin-2 for treating cancer” (2020).

Data set [1] has as its system Mus musculus. Kind of data set: Protection against erythropoietin-induced myeloproliferation in wild type mouse assessed as reduction in leucocytosis at 40 mg/kg, ip administered every 2 days for 8 days. Type of data set: functional, organism-based. The settings on record: time 2.0 day.
The nature of data set [2]: Acute toxicity in mouse assessed as drug tolerability time at 40 mg/kg, ip administered as single dose. Type of data set: organism-based. The conditions noted are these: in vivo.
Data set [3] concerns Mus musculus. The data set is described as follows: Protection against Jak2 V617F-konckin induced myeloproliferation in mouse assessed as reduction in spleen size at 25 mg/kg, ip administered once every two days. Type of data set: functional, organism-based. The settings on record: time 2.0 day.
Data set [4] has as its system Mus musculus. The data set is described as follows: Protection against Jak2 V617F-konckin induced myeloproliferation in mouse assessed as reduction in vascular occlusions in lung at 25 mg/kg, ip administered once every two days. Type of data set: functional, organism-based. The settings on record: time 2.0 day.
The subject of data set [5] is Mus musculus. Kind of data set: Protection against Jak2 V617F-konckin induced myeloproliferation in mouse assessed as reduction in extramedullary erythropoiesis at 25 mg/kg, ip administered once every two days. The class given is functional, organism-based. The conditions noted are these: time 2.0 day.
The subject of another data set is Jurkat. Kind of data set: Effect on Plek2 cell membrane localization in human Jurkat cells overexpressing GFP-Plek2 at 100 nM measured by real-time confocal imaging analysis. Type of data set: functional, cell-based.
Data set [6] has as its system Mus musculus. Kind of data set: Protection against erythropoietin-induced myeloproliferation in wild type mouse assessed as reduction in splenomegaly at 40 mg/kg, ip administered every 2 days for 8 days. The settings on record: time 2.0 day. Type of data set: functional, organism-based.
The subject of the next data set is Bone marrow cell. Kind of data set: Inhibition of Plek2 in mouse bone marrow lineage negative cells expressing wild-type Plek2 and treated with erythropoietin at 10 uM assessed as inhibition of Akt phosphorylation measured by western blot analysis. The class given is cell-based.
In data set [7] the test system is Mus musculus. Kind of data set: Protection against Jak2 V617F-konckin induced myeloproliferation in mouse assessed as reduction in red blood cell count at 25 mg/kg, ip administered once every two days. Type of data set: functional, organism-based. The conditions noted are these: time 2.0 day.
In data set [8] the test system is Mus musculus. Kind of data set: Protection against erythropoietin-induced myeloproliferation in wild type mouse assessed as reduction in vascular occlusions at 40 mg/kg, ip administered every 2 days for 8 days. The class given is functional, organism-based. The conditions noted are these: time 2.0 day.
Data set [9] relates to Mus musculus. The data set is described as follows: Protection against erythropoietin-induced myeloproliferation in wild type mouse assessed as reduction in erythrocytosis in spleen red pulp at 40 mg/kg, ip administered every 2 days for 8 days. Type of data set: functional, organism-based. The settings on record: time 2.0 day.
Data set [10] has as its system Mus musculus. Kind of data set: Protection against erythropoietin-induced myeloproliferation in wild type mouse assessed as reduction in reticulocytosis at 40 mg/kg, ip administered every 2 days for 8 days. The settings on record: time 2.0 day. The class given is functional, organism-based.
A short description of data set [11]: Inhibition of Plek2 in Ter119-negative mouse fetal liver erythroid progenitor cells overexpressing Plek2 cultured in erythropoietin containing medium assessed as decrease in cell proliferation measured by HTS assay. Type of data set: tissue-based.
A short description of data set [12]: Toxicity in wild type mouse assessed as hematologic abnormalities at 40 mg/kg, ip administered every 2 days for 8 days. Type of data set: organism-based. The conditions noted are these: in vivo, 48 h, time 2 day.
Data set [13] in a line: Toxicity in Jak2 V617F-konckin induced myeloproliferation in mouse assessed as induction of side effects at 25 mg/kg, ip administered once every two days. The class given is organism-based. The conditions noted are these: in vivo, 48 h, time 2 day.
In data set [14] the test system is Mus musculus. Kind of data set: Protection against erythropoietin-induced myeloproliferation in wild type mouse assessed as improvement in lung vasculature at 40 mg/kg, ip administered every 2 days for 8 days. The class given is functional, organism-based. The conditions noted are these: time 2.0 day.
Data set [15] concerns Mus musculus. The data set is described as follows: Protection against Jak2 V617F-konckin induced myeloproliferation in mouse assessed as normalization of white blood cell count at 25 mg/kg, ip administered once every two days. Type of data set: functional, organism-based. The settings on record: time 2.0 day.
Data set [16] is described as follows: Inhibition of Plek2 in Ter119-positive mouse fetal liver erythroid progenitor cells cultured in erythropoietin containing medium assessed as decrease in cell proliferation measured by HTS assay. The class given is tissue-based.
Data set [17] can be described thus: Inhibition of Plek2 in Ter119-positive mouse fetal liver erythroid progenitor cells cultured in erythropoietin containing medium assessed as decrease in terminal enucleation of erythroblasts measured by HTS assay. Type of data set: tissue-based.
The test system of a further data set is COS-7. Kind of data set: Inhibition of Plek2 in African green monkey COS-7 cells overexpressing Plek2 at 10 uM assessed as decrease in lamellipodia formation. The class given is cell-based. The conditions noted are these: Chlorocebus aethiops.
For the next data set, the species on record is Homo sapiens. The data set is described as follows: Binding affinity towards GST-tagged Plek2 (unknown origin) at 200 uM measured by isothermal calorimetry (ITC) assay relative to control.

SMILES strings stand for the structures. Activity calls are given as the source filed them. The calls are words filed in the database; no cut-off is given here.

What is called IC50 is the concentration at which inhibition is half-maximal. For `CN1CCN(C(c2ccc(Cl)cc2)C(O)C(=O)c2c[nH]c3ccccc23)CC1` (stereo unspecified), the result in the data set on Mus musculus [1], in the data set with Mus musculus [3], with Mus musculus [4], in the data set on Mus musculus [5], with Jurkat and in the data set with Mus musculus [6] was Active. For the same molecule, the outcome in the data set with Mus musculus [7], with Mus musculus [8], in the data set on Mus musculus [9], in the data set with Mus musculus [10], in the data set with Mus musculus [14] and in the data set on Mus musculus [15] was Active. Also, the Time in [2] turned out to be 2 days. Moreover, in the data set on Bone marrow cell, the inhibition result is “Active”. In addition, in [11], the IC50 was less than 10 µM. Also, the Activity result in [12] and in [13] was “Non-Toxic” in each case.

`O=C(c1c[nH]c2ccccc12)C(O)C(c1ccccc1)N1CCN(CCO)CC1` (stereo unspecified): the 50% inhibitory concentration (IC50) in data set [16] and in [17] was 40 µM throughout. Further, in the data set with COS-7, the inhibition result is “Active”. In addition, in the data set filed under Homo sapiens, the outcome was Active.
